The source of these data is US11578055B2, “Triazacyclododecansulfonamide (“TCD”)-based protein secretion inhibitors” (KEZAR LIFE SCIENCES, priority 2018, dated 2023).

Each structure is given as a SMILES string.

The subject of data set [1] is multiple myeloma cell line NCl-H929. In words: H929 Cell Viability Assay. The data set is classed as cell-based, human. As to conditions: Homo sapiens, NCI-H929, 48 h, H929, read-out: 48 hr H929 Viability Celltiter-Glo: Mean EC50. A digest of the protocol: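 Viability was determined by CellTiter-Glo luminescence after a 48 h, 37 °C exposure of NCI-H929 cells to serial compound dilutions in medium containing 10% FBS. Where stereochemistry is not shown, values refer to a mix of stereoisomers.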

A short description of data set [2]: In Vitro Microsome Stability Assay (mouse). The data set is classed as in vitro ADME. Conditions: mouse, 30 min, NADPH. The method, boiled down:
(§1)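 The value reported is the percentage of parent left after 30 min, calculated from analyte/IS peak-area ratios relative to time zero by LC-MS/MS. Incubations ran at 37° C in 0.1 M potassium phosphate with NADPH and microsomes (stock 20 mg/mL), with compound added from a 0.25 mM DMSO stock. Acetonitrile containing IS stopped the reactions.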

A short description of data set [3]: In Vitro Microsome Stability Assay (monkey). The class given is in vitro ADME. Conditions: monkey, 30 min, NADPH. The method, boiled down:
as §1

For data set [4], the system named is multiple myeloma cell line U266B1. In words: U266 Cell Viability Assay. As to conditions: Homo sapiens, U-266; 48 hr, U266; read-out: 48 hr U266 Viability Celltiter-Glo: Mean EC50. The class given is cell-based, human. The method, boiled down: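 Viability was measured by CellTiter-Glo luminescence after 48 h compound exposure at 37° C, 5% CO2. The cells were U266B1 multiple myeloma cells grown in RPMI 1640 plus 10% FBS. Where stereochemistry is not shown, values apply to the stereoisomer mixture.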
For orientation: Cellular ATP, detected with luciferase, serves as a proxy for viable cell number.

Data set [5] can be described thus: In Vitro Microsome Stability Assay (human). The data set is classed as in vitro ADME. Conditions: human, 30 min, NADPH. The method, boiled down: as §1
In data set [6] the test system is PD1 signal sequence plus 10 amino acids fused to Gaussia Luciferase (PD1-ss+10aa/Gaussia Luciferase). In words: Dox Induced PD1-ss-Gluc Assay. The class given is cell-based. As to conditions: 24 hr, 293FRT/TO; read-out: 24 hr Dox Inducible PD1ssGluc 293FRT/TO: Mean IC50. The method, boiled down:
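Compound dilutions in DMSO/media containing doxycycline were applied to a stable, inducible 293 T-REx line carrying the luciferase fusion, then incubated at 37 °C, 5% CO2. Where stereochemistry is not drawn, values relate to isomer mixtures.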

A short description of data set [7]: In Vitro Microsome Stability Assay (rat). The data set is classed as in vitro ADME. Conditions: rat, 30 min, NADPH. The method, boiled down: as §1
Data set [8] has as its system full length TNFα (amino acids 1-233) fused to Gaussia Luciferase. In words: Dox Induced TNFα-FL-Gluc Assay. The class given is cell-based. As to conditions: 24 hr, 293FRT/TO; read-out: 24 hr Dox Inducible TNFaFLGluc 293FRT/TO: Mean IC50. A digest of the protocol: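 Compounds diluted in DMSO/medium with doxycycline were incubated at 37° C, 5% CO2 with 293 T-REx cells stably carrying a Tet-regulated TNFα(1-233)-Gaussia luciferase construct. Data for structures drawn without stereochemistry refer to stereoisomer mixtures.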

On to `C=C1CN(S(=O)(=O)c2ccc(N(C)C)cc2)CCCN(CC2CCCCC2)CCCN(S(=O)(=O)N2CC=C(c3ccccc3Cl)CC2)C1` [A73, 4-[(5-{[4-(2-chlorophenyl)-1,2,3,6-tetrahydropyridin-1-yl]sulfonyl}-9-(cyclohexylmethyl)-3-methylidene-1,5,9-triazacyclododecan-1-yl)sulfonyl]-N,N-dimethylaniline], for which the EC50 is 3.47 µM in data set [1] and above 25 µM in data set [4]. Also, the “Liver Microsome Stability-% Left after 30 min w/ NADPH (%) Mouse” value (from here on “Liver Microsome Stability-% Left … (%) Mouse”) in data set [2] stood at 16.3%. In data set [3], the “Liver Microsome Stability-% Left after 30 min w/ NADPH (%) Monkey” value (shortened to “Liver Microsome Stability-% Left … (%) Monkey”) is 25.4%. For the same molecule, the “Liver Microsome Stability-% Left after 30 min w/ NADPH (%) Human” value (“Liver Microsome Stability-% Left … (%) Human” for short) in data set [5] is reported as 18.2%. Moreover, the IC50 in data set [6] is 0.0373 µM; in data set [8] it was 1.86 µM. Besides, the “Liver Microsome Stability-% Left after 30 min w/ NADPH (%) Rat” value (shortened to “Liver Microsome Stability-% Left … (%) Rat”) in data set [7] is on record as 71.5%.

Turning to `C=C1CN(S(=O)(=O)c2ccc(N(C)C)cc2)CCCN(CC2CCCCC2)CCCN(S(=O)(=O)N2CCC(C3CCOCC3)CC2)C1` [A78, 4-{[9-(cyclohexylmethyl)-3-methylidene-5-{[4-(oxan-4-yl)piperidin-1-yl]sulfonyl}-1,5,9-triazacyclododecan-1-yl]sulfonyl}-N,N-dimethylaniline], the EC50 in data set [1] and in data set [4] was above 25 µM each time. Besides, the “Liver Microsome Stability-% Left … (%) Mouse” value in data set [2] was 0.15%. In data set [3], the “Liver Microsome Stability-% Left … (%) Monkey” value was determined as 0.11%. In data set [5], the “Liver Microsome Stability-% Left … (%) Human” value was determined as 0.2%. The results for the IC50 in data set [6] and in data set [8] were 0.36 µM and above 25 µM, respectively. The “Liver Microsome Stability-% Left … (%) Rat” value in data set [7] was determined as 0.25%.

With `C=C1CN(S(=O)(=O)c2ccc(N(C)C)cc2)CCCN(CC2CCCCC2)CCCN(S(=O)(=O)N2CCC(n3cccn3)CC2)C1` [A79, 4-{[9-(cyclohexylmethyl)-3-methylidene-5-{[4-(1H-pyrazol-1-yl)piperidin-1-yl]sulfonyl}-1,5,9-triazacyclododecan-1-yl]sulfonyl}-N,N-dimethylaniline], the EC50 in data set [1] and in data set [4] was above 25 µM in each case. Further, in data set [2], the “Liver Microsome Stability-% Left … (%) Mouse” value was 10.6%. In addition, the “Liver Microsome Stability-% Left … (%) Monkey” value in data set [3] is 0.06%. Besides, the “Liver Microsome Stability-% Left … (%) Human” value in data set [5] stood at 0.16%. The IC50 in data set [6] is 0.408 µM; in data set [8], above 25 µM. The “Liver Microsome Stability-% Left … (%) Rat” value in data set [7] is on record as 0.1%.

Regarding `C=C1CN(S(=O)(=O)c2ccc(N(C)C)cc2)CCCN(CC2CCCCC2)CCCN(S(=O)(=O)N2CCC(c3nc4ccccc4o3)CC2)C1` [A80, 4-[(5-{[4-(1,3-benzoxazol-2-yl)piperidin-1-yl]sulfonyl}-9-(cyclohexylmethyl)-3-methylidene-1,5,9-triazacyclododecan-1-yl)sulfonyl]-N,N-dimethylaniline], the EC50 in data set [1] and in data set [4] was above 25 µM each time. For the same molecule, the “Liver Microsome Stability-% Left … (%) Mouse” value in data set [2] came out at 13.4%. Besides, in data set [3], the “Liver Microsome Stability-% Left … (%) Monkey” value is 2.56%. Moreover, in data set [5], the “Liver Microsome Stability-% Left … (%) Human” value is 10.8%. For the same molecule, the IC50 was 0.273 µM in data set [6] and above 25 µM in data set [8]. In addition, the “Liver Microsome Stability-% Left … (%) Rat” value in data set [7] is given as 14.1%.

In the case of `C=C1CN(S(=O)(=O)c2ccc(N(C)C)cc2)CCCN(CC2CCCCC2)CCCN(S(=O)(=O)N2CCC(c3ncccn3)CC2)C1` [A81, 4-{[9-(cyclohexylmethyl)-3-methylidene-5-{[4-(pyrimidin-2-yl)piperidin-1-yl]sulfonyl}-1,5,9-triazacyclododecan-1-yl]sulfonyl}-N,N-dimethylaniline], the concentration giving a half-maximal response (EC50) in data set [1] and in data set [4] was above 25 µM each time. Moreover, the “Liver Microsome Stability-% Left … (%) Mouse” value in data set [2] worked out at 0.12%. The “Liver Microsome Stability-% Left … (%) Monkey” value in data set [3] is listed as 0.03%. In addition, the “Liver Microsome Stability-% Left … (%) Human” value in data set [5] stood at 0.2%. In addition, the IC50 in data set [6] was 0.477 µM; in data set [8] it was above 25 µM. Moreover, the “Liver Microsome Stability-% Left … (%) Rat” value in data set [7] was found to be 0.12%.

In general, EC50 refers to the concentration that produces a half-maximal response.
